Where two headings read alike, the source gives them in different places.
Tests used:
[1] = biological target: Saccharomyces cerevisiae α-glucosidase; assay: In vitro α-glucosidase inhibition assay (BioVision kit, pNPG); format: biochemical; conditions: for %inh α-glucosidase: Table 2S
Experimental: Using BioVision’s α-Glucosidase Inhibitor Screening Kit (Colorimetric) (Catalogue #K938-100) at (OD: 410 nm), the in vitro α-glucosidase suppression effect for the designed 1,2,4-triazole derivatives 3, 4, 6, 8, 9, and 10 was carried out. The results were analyzed on a multi-well spectrophotometer (ELISA reader) using a 96-well microplate in compliance with the manufacturer’s instructions as previously described[49],[50]. The α-glucosidase inhibition assay was conducted using Saccharomyces cerevisiae α-glucosidase (0.5–1 U/mL in phosphate buffer, pH 6.8). Test compounds (63–1000 µg/mL) were pre-incubated with the enzyme at 37 °C for 10 min, followed by addition of pNPG (5 mM) and further incubation for 30 min. The reaction was stopped with 0.2 M Na2CO3, and absorbance was measured at 405 nm. […] Inhibition (%) was calculated as above, and IC50 values were derived from nonlinear regression analysis Table 2S.

[2] = biological target: T1, porcine pancreatic α-amylase (Sus scrofa, UniProt P00690); assay: In vitro α-amylase inhibition assay (BioVision kit / modified DNSA method); format: biochemical; conditions: for %inh α-amylase: Table 1S
T1 construct: purchased BioVision K482-100
T1 sequence (P00690 16-511): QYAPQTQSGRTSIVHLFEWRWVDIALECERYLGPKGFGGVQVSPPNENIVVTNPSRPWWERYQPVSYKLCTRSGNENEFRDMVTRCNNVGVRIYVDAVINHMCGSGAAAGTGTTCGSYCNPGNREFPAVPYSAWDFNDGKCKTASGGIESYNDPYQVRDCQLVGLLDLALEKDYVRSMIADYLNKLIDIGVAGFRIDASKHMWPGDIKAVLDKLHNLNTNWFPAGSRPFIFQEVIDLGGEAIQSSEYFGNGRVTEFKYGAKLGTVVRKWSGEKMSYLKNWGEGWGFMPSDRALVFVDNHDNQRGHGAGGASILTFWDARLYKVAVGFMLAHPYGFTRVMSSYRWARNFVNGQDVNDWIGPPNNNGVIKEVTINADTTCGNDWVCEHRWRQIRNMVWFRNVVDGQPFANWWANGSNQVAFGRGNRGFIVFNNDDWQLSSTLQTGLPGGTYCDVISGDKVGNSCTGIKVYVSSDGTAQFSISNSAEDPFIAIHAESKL
Experimental: The α-amylase inhibition assay was performed using a modified DNSA (3,5-dinitrosalicylic acid) method. Test compounds (dissolved in DMSO) were serially diluted (100, 10, 1, 0.1, and 0.01 µg/mL) and pre-incubated with porcine pancreatic α-amylase (0.5 U/mL in phosphate buffer, pH 6.8) at 37 °C for 10 min. Starch solution (1% w/v) was added, and the reaction proceeded for 30 min at 37 °C. The reaction was terminated by adding DNSA reagent, followed by heating at 85 °C for 10 min. Absorbance was measured at 540 nm using a microplate reader. […] The percentage inhibition was calculated as: [(Acontrol–Asample)/Acontrol] × 100, where Acontrol represents enzyme activity without inhibitor. IC50 values were determined from dose-response curves using GraphPad Prism. Kinetic parameters (KActivity) were derived from ∆RFU (Relative Fluorescence Units) and slope values Table 1S.

[3] = read-out: α-amylase inhibition IC50 (converted)
[4] = table printed in Fig. 9, read-out: α- Amylase IC50 (converted)

| SMILES | α-glucosidase inhibition IC50 [1] [µg/mL] | %inh α-glucosidase ([1]; conc 63 (µg/mL)) [%] | %inh α-glucosidase ([1]; conc 125 (µg/mL)) [%] | %inh α-glucosidase ([1]; conc 250 (µg/mL)) [%] | %inh α-glucosidase ([1]; conc 500 (µg/mL)) [%] | %inh α-glucosidase ([1]; conc 1000 (µg/mL)) [%] | %inh α-amylase ([2]; conc 0.01 (µg/mL)) [%] | %inh α-amylase ([2]; conc 0.1 (µg/mL)) [%] | %inh α-amylase ([2]; conc 1 (µg/mL)) [%] | %inh α-amylase ([2]; conc 10 (µg/mL)) [%] | %inh α-amylase ([2]; conc 100 (µg/mL)) [%] | IC50 [2, 3] [nM] | IC50 [2, 4] [nM] |
| --- | --- | --- | --- | --- | --- | --- | --- | --- | --- | --- | --- | --- | --- |
| COc1ccc(Cc2nnc(SCC(=O)Nc3ccc(C(=O)O)cc3)n2-c2ccccc2)cc1 [Compound 6, 4-(2-((5-(4-methoxybenzyl)-4-phenyl-4H-1,2,4-triazol-3-yl)thio)acetamido)benzoic acid] | 0.83 ± 0.03 | 1.67 | 4.01 | 7.55 | 28.9 | 69.2 | 14.4 | 19.9 | 40.6 | 74.1 | 91.3 | 2610 | 2620 |
| COc1ccc(Cc2nnc(SCC(=O)Nc3ccc(O)cc3)n2-c2ccccc2)cc1 [Compound 9, N-(4-hydroxyphenyl)-2-((5-(4-methoxybenzyl)-4-phenyl-4H-1,2,4-triazol-3-yl)thio)acetamide] | 0.77 ± 0.02 | 4.22 | 7.76 | 14 | 31.9 | 68.2 | 20.6 | 35.3 | 48.3 | 73.3 | 90 | 1410 | 1420 |
| C[C@H]1O[C@H](O[C@H]2[C@H](O)[C@@H](O)[C@@H](O[C@H]3[C@H](O)[C@@H](O)C(O)O[C@@H]3CO)O[C@@H]2CO)[C@H](O)[C@@H](O)[C@@H]1N[C@H]1C=C(CO)[C@@H](O)[C@H](O)[C@H]1O (some centres unmarked) [Acarbose, reference compound] | – | 8.91 | 28 | 40.6 | 58.6 | 76.8 | – | – | – | – | – | – | – |
| CCOC(=O)c1ccc(NC(=O)CSc2nnc(Cc3ccc(OC)cc3)n2-c2ccccc2)cc1 [Compound 8, Ethyl 4-(2-((5-(4-methoxybenzyl)-4-phenyl-4H-1,2,4-triazol-3-yl)thio)acetamido)benzoate] | 0.67 ± 0.02 | 1.46 | 5.94 | 18.4 | 38.9 | 67.3 | 12 | 29.3 | 41.6 | 63.1 | 88.7 | 2890 | 2890 |
| COc1ccc(Cc2nnc(SCC(=O)Nc3ccc(C(C)=O)cc3)n2-c2ccccc2)cc1 [Compound 4, N-(4-acetylphenyl)-2-((5-(4-methoxybenzyl)-4-phenyl-4H-1,2,4-triazol-3-yl)thio)acetamide] | 0.27 ± 0.01 | 19.9 | 36.6 | 50.9 | 63.6 | 82.4 | 25.8 | 44.6 | 62.6 | 85.7 | 93.1 | 402 | 419 |
| COc1ccc(Cc2nnc(SCC(=O)Nc3ccc(Br)cc3)n2-c2ccccc2)cc1 [Compound 10, N-(4-bromophenyl)-2-((5-(4-methoxybenzyl)-4-phenyl-4H-1,2,4-triazol-3-yl)thio)acetamide] | 0.31 ± 0.01 | 16.3 | 25.1 | 39.9 | 58 | 82.8 | 29.2 | 41.2 | 56.1 | 77.6 | 92.3 | 510 | 528 |
| COc1ccc(Cc2nnc(SCC(=O)Nc3ccccc3)n2-c2ccccc2)cc1 [Compound 3, 2-((5-(4-methoxybenzyl)-4-phenyl-4H-1,2,4-triazol-3-yl)thio)-N-phenylacetamide] | 0.36 ± 0.01 | 15.7 | 30 | 40.9 | 58.5 | 77 | 19.9 | 36.7 | 58.4 | 83.4 | 92.3 | 859 | 876 |

Reference: PMC12297423, “Dual α-amylase and α-glucosidase inhibition by 1,2,4-triazole derivatives for diabetes treatment” (Scientific Reports, 2025)
